Laboratory results reported in patent publication US20020028851A1, “Guanylhydrazones and their use to treat inflammatory conditions” (priority 1994, published 2002).
Values joined by “and” are separate entries in the source; they are usually repeats but may differ in a detail not shown here. Identical values can stand only once.

Legend:
C3H/HeN mice = assay: Carrageenan-induced paw swelling; format: in vivo
Protocol: Paw edema was induced by injection of 50 microliters of 1% Lambda-carrageenan in HEPES 25 mM, pH 7.4, into the planter surface of the left hindpaw of C3H/HeN mice, the right paw was injected with 50 microliters of HEPES alone. The animals were divided into two groups: controls (n=3) received vehicle only, i.p. 1.5 hour before paw injection; the experimental group […] was treated with Compound No. 14, 5 mg/Kg, i.p. 1.5 hour before paw injection. Three hours after paw injection, paw thickness was measured using a caliper, and the data expressed as change of carrageenan paw vs HEPES paw thickness.
The results are summarized in Table V which contains the carrageenan-induced increase in paw thickness in mm of three control and three Compound No. 14 treated mice. The inhibition can also be reported as percent inhibition of swelling as defined by the standard formula: Percent inhibition=(1−(treated/control))×100. Calculation of this parameter for treated animals in which Compound No. 14 suppressed swelling yields a 70% inhibition.

TNF = assay: Cytokine production by LPS/γIFN-stimulated human PBMC: TNF; format: cell-based; conditions: γIFN+LPS, 18 hr
Description: (§1) Similar results concerning a variety of cytokines in addition to TNF, e.g., IL-6 and Macrophage Inflammatory Proteins-1α and -1β (MIP-1α and MIP-1β) were obtained using human peripheral blood as a source of monocytes. Human peripheral blood mononuclear cells (PBMC) were isolated using “FICOLL®”-based methods and plated in standard 6-well culture plates at a concentration of 10^6/well and allowed to adhere for from 2 hr to overnight whereupon non-adherent cells were washed out and the medium was then replaced with medium containing the compound to be tested. One hour later, the medium was supplemented so as to contain 25 U/ml γIFN and 0.1 μg/ml LPS and the cultures incubated a further 18 hr. The medium was then collected, and cell debris removed by centrifugation. This conditioned supernatant was then assayed for the presence of cytokines using the standard methodologies of L929 cell cytotoxicity bioassay and immunoassay (ELISA).

IL-6 = assay: Cytokine production by LPS/γIFN-stimulated human PBMC: IL-6; format: cell-based; conditions: γIFN+LPS, 18 hr
Description: as §1

MIP-1β = assay: Cytokine production by LPS/γIFN-stimulated human PBMC: MIP-1β; format: cell-based; conditions: γIFN+LPS, 18 hr
Description: as §1

Lewis rats = assay: Focal cerebral infarction (middle cerebral artery severing); format: in vivo; conditions: 1 mg/Kg i.v. one hour before artery severed; 24 hours; p<0.05 vs controls
Protocol: Lewis rats (male, 270-300 g) were given food and water ad libi tum before and after surgery. Animals were anesthetized with ketamine (120 mg/Kg i.m.), allowed to breathe spontaneously, and body temperature maintained at 35.5-36.5° C. with a heating blanket. The ventral neck and area between the right eye and ear was shaved. A midline ventral cervical incision was used to expose the left common carotid artery (CCA) which was dissected free from surrounding tissue with preservation of the vagus nerve. A loop of 4-0 silk was then placed around the artery for future manipulation. The right common carotid artery was then exposed and permanently occluded with double 4-0 silk ligatures. […]
Twenty-four hours after MCA severing, animals were anesthetized and decapitated and the brains were quickly removed without perfusion and coronally sectioned at 1 mm intervals with a brain slicer for analysis. […] Slices were then placed in buffered 10% formalin and infarct area determined by planimetry on projected images of photographed brain slices. Infarct size for an individual animal was calculated by summing the infarct area present on each brain slice and dividing by the sum of hemisphere area for all slices for that animal (expressed as a percentage of hemisphere area for each slice). Animals were studied in groups of 10, and the data expressed as average stroke volume for the group.

[1] = Pharmacokinetics by HPLC of serum; format: in vivo, rats
Protocol: Male Sprague-Dawley rats (Harlan Sprague Dawley, Indianapolis, Ind., USA) were anesthetized with ketamine and the right carotid artery cannulated with polyethylene tubing (PE-50). […] At 0, 5, 15, 30, 60, 90, 120, 180, 240, 300, 360 minutes 400 μl of blood was removed, stored at 4° C. for 4 hr, and then centrifuged at 15,000 ×g for 10 min, and the serum layer collected. Sodium azide was added to 0.0l v/v to prevent microbial growth and pentamidine was added to 5 μg/ml. Twenty-five μl of the resulting sample was analyzed by the HPLC method described.
The HPLC method was applied towards estimating the pharmacokinetic parameters of Compound No. 14 in adult rats receiving a 10 mg/kg dose as a single intra-arterial injection. In these experiments, the solid-phase extraction step was omitted due to the small volume of each sample, and the relatively large amount of Compound No. 14 which was recovered. Typical serum decay curves were obtained (FIG. 17, solid line), and the method of residuals, Gibaldi, M., & Perrier, D., 1982, PHARMACOKINETICS (Marcel Dekker, New York) pp. 433-444, was used to calculate the pharmacokinetic parameters (FIG. 17, dashed lines).

RAW 264.7 cells = assay: Whole cell inhibition assay for arginine uptake; format: cell-based, murine
[2] = rats, 10 mg/kg single intra-arterial injection, n=3

With CC(=NNC(=N)N)c1cc(NC(=O)CCCCCCCCC(=O)Nc2cc(C(C)=NNC(=N)N)cc(C(C)=NNC(=N)N)c2)cc(C(C)=NNC(=N)N)c1.Cl.Cl.Cl.Cl [Compound 14, N,N′-bis(3,5-diacetyl-phenyl)decanediamide tetrakis(amidinohydrazone) tetrahydrochloride] the “CHANGE IN PAW THICKNESS (carrageenan paw vs HEPES paw)” value (C3H/HeN mice; 5 mg/Kg i.p. 1.5 hour before paw injection, three hours after, individual mice) was 0.54 mm and 0.41 mm and 0.4 mm, the “Percent inhibition of swelling” value (C3H/HeN mice; 5 mg/Kg i.p., (1−(treated/control))×100) was 70% and the “concentration that effectively inhibited production of TNF” value (TNF) was 10 to 20 µM. The “concentration that effectively inhibited production of IL-6” value (IL-6) was 10 to 20 µM, the “concentration that effectively inhibited production of MIP-1β” value (MIP-1β) was 10 to 20 µM and the “mean infarct (stroke) size, percentage of hemisphere area” value (Lewis rats) was 1.7%±0.2%. The absorption and bioavailability ([1]; intraperitoneal or oral dosing routes (data not shown)) was “not rapidly absorbed, and may have a low bioavailability”, the “distribution half-life (t½α)” value [1, 2] was 2.41 ± 0.69 min and the “distribution rate constant (α)” value [1, 2] was 0.31 ± 0.09 min⁻¹. The “elimination half-life (t½β)” value [1, 2] was 5.02 ± 0.00 h, the “elimination rate constant (β)” value [1, 2] was 0.0023 ± 0.0000 min⁻¹ and the “total clearance (CL)” value [1, 2] was 5.62 ± 0.47 mL/min. The “volume of distribution (Vd)” value [1, 2] was 2.45 ± 0.21 L, the peak plasma levels ([1]; single doses of 0.4-1.0 mg/kg, from pharmacokinetic constants and FIG. 17) was greater than 0.5 µM and the IC50 (RAW 264.7 cells; stimulated 8 hours previously, then exposed 10 minutes in arginine-free buffer, mean±std. err., n=3, read-out: I.C.50 for arginine uptake) was 60 ± 15 µM. For the same molecule, the “sensitivity of arginine uptake of unstimulated cells” value (RAW 264.7 cells; unstimulated RAW 264.7) was “insensitive”.
